According to paper PMC8476755 (Frontiers in Chemistry, 2021):
Entries after “also recorded” stand apart in the source; their conditions may differ.

Molecular target: T1, human α1β2γ2 GABAA receptors (Homo sapiens, UniProt P14867+P47870)
T1 construct: expressed in transfected cells
Assay: FMP assay at GABAA receptors in HEK293 cells
Format: cell-based
Details: for Activity at α1β2γ2 GABAA receptors: 2 tested up to 100 µM
Description: For this purpose we chose the major GABAA receptor subtype in the brain, α1β2γ2, and used the FMP assay for functional assessment as previously reported ([Falk-Petersen et al., 2020]). This assay detects changes in membrane potential for an average cell population through changes in fluorescence of a membrane pre-equilibrated fluorescent blue dye. It therefore provides an indirect measure of activity with the advantage of being able to discern between GAT substrates and inhibitors ([Kragholm et al., 2013]; [Al-Khawaja et al., 2014]; [Kickinger et al., 2020]).
The tsA201 cell line (a transformed HEK293 cell line), the Flp-In CHO cell lines stably expressing human (h) GATs and the HEK293 cell line stably expressing human α1β2γ2 GABAA receptors have been described previously and were cultured accordingly ([Al-Khawaja et al., 2014]; [Falk-Petersen et al., 2020]). […]
The FMP assay performed on human α1β2γ2 GABAA receptors in HEK293 cells was performed as described and data analyzed accordingly ([Falk-Petersen et al., 2020]). […] Test compound solutions were prepared at 4x concentration in assay buffer and added to ligand plates pre-heated at 37°C for 10–15 min in the FLEXstation3 plate reader (Molecular Devices). After incubation, 33.3 µL test compound solution (4x) was automatically transferred to each well in the cell plate and the signal was measured for 90 s by measuring emission at 560 nm caused by excitation at 530 nm. […] Data obtained in the FMP assay are given as relative changes in fluorescence units (ΔRFU) by subtracting the average of the baseline fluorescence signal from the peak fluorescence signal after compound addition. […] A Gaddum-Schild plot was performed according to the equation: log(dr-1) = log(B)+pA2, where B is the concentration of the inhibitor, pA2 is the negative logarithm of the dissociation constant KB, and the dose-ratio dr is equal to the EC′50/EC50, where EC′50 and EC50 are determined in the presence and absence of the different inhibitor concentrations, respectively. […]

T1 sequence (P14867 28-456): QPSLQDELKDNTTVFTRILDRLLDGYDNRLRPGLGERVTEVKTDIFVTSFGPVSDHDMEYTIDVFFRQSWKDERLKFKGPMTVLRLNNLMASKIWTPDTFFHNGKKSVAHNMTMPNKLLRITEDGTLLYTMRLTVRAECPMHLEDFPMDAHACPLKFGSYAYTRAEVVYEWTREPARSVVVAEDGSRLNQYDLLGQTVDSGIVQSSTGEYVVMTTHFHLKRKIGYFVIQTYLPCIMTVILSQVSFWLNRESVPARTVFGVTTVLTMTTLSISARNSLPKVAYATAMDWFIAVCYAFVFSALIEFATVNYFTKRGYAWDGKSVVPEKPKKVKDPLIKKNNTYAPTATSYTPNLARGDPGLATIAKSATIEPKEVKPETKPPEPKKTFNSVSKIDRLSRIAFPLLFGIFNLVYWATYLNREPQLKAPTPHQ
T1 sequence (P47870 25-512 limits assumed): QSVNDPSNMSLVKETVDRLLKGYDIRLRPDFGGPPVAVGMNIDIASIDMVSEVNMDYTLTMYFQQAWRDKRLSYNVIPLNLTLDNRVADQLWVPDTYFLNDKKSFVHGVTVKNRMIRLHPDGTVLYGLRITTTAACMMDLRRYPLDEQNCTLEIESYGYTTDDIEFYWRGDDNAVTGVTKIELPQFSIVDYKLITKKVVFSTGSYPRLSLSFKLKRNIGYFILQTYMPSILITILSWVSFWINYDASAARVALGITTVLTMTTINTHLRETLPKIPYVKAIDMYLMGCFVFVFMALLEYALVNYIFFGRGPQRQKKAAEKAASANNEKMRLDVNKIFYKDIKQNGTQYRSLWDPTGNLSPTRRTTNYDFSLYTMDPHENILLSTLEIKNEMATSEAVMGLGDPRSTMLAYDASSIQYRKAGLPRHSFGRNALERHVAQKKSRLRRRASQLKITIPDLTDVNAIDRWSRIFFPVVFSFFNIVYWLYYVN
T1 sequence (P18507 40-475 partner): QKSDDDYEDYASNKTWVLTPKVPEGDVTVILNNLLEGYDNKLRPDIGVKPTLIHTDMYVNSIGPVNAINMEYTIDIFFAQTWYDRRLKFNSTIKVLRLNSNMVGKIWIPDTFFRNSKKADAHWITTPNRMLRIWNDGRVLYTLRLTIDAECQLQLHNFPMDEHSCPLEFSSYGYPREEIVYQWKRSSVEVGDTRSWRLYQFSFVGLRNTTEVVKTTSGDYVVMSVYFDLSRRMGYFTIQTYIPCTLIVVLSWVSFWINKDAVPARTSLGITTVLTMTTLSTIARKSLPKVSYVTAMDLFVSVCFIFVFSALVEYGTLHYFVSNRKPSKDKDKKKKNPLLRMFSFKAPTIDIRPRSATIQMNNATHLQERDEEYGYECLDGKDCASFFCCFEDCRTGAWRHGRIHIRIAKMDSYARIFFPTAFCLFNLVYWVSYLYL

Compound	Activity at α1β2γ2 GABAA receptors	EC50 (agonist activity, HEK293 cells) [µM]
N[C@@]12CC[C@H](C(=O)O)[C@@H]1C2 [bicyclo-GABA, (1S,2S,5R)-5-aminobicyclo[3.1.0]hexane-2-carboxylic acid]	low micromolar agonistic activity	5.1
CN[C@@]12CC[C@H](C(=O)O)[C@@H]1C2 [compound 2]	completely devoid of activity; also recorded: inactive	–
